The values that follow are results of earlier work, collected in patent US20080095722A1, “Extended Surface Aggregates in the Treatment of Skin Conditions” (IDEA AG, priority 2004, published 2008).

Series [1] concerns melanocytes. The conditions noted are these: cell cultures, cited from earlier work.
Series [2] concerns erythema. The conditions noted are these: gel base or alcoholic solution; cited from earlier work.

Each structure is given as a SMILES string. Read-outs that look alike come from different tables or passages of the source.

As for `CC(=O)Oc1ccccc1C(=O)O` [acetylsalicylic acid], the figures for the effect on melanocytes result in series [1] (low concentrations) and in series [1] (very high concentrations) were “stimulate melanocytes” and “may cause melanocyte apoptosis”, respectively.

With `COc1ccc2c(c1)c(CC(=O)O)c(C)n2C(=O)c1ccc(Cl)cc1` [indomethacin], the “inhibition of the appearance of erythema” value in series [2] is “some inhibition of the appearance of erythema”.
